According to paper PMC12562640, “Investigating Amphoteric 3,4′-Biscoumarin-Based ortho-[(Dialkylamino)methyl]phenols as Dual MAO and ChE Inhibitors” (International Journal of Molecular Sciences, 2025):
In brackets after ≈: the same amount, converted by molar mass. Several values for one entry are separate records, joined by “and”; a condition that tells them apart may be missing. Equal values may be shown once. Entries after “also recorded” stand apart in the source; their conditions may differ. Read-outs that look alike come from different tables or passages of the source.

Legend:
[1] = Kinetic solubility in aqueous buffers (RP-HPLC); assay type: physicochemical; details: for solubility at 2 h: PBS buffer, 25 °C, pH 7.4, aqueous buffer, kinetic from dmso stock, read-out: Solubility Exp.; for experimental solubility in PBS pH 7.4, times higher than calculated with the ESOL model: PBS pH 7.4 vs ESOL
Protocol: Water solubility and lipophilicity parameters were measured following previously reported methods. […] The mixture was then separated by centrifugation at 2500 rpm for 3 min. Immediately after filtration, 100 µL of the filtrate was mixed with an equal volume of a 1:1 (v/v) DMSO and PBS (50 mM, pH 7.4, KCl 0.15 M) or HCl (0.01 M, pH 2, KCl 0.15 M) solution to prevent precipitation from the saturated solution and subsequently analyzed by HPLC. The peak area was compared to a calibration curve of the tested compound in MeOH. The analytical parameters were set as follows. Mobile phase: MeOH/water pH 2.8 (acetic acid 0.5% v/v) at different percentages depending on the retention time of each test compound; stationary phase: Phenomenex, Kinetex 5 µ, C8, (150 × 3 mm); flux: […]; injection: 2 µL; λ 330 nm. The analyses were performed on the Agilent HPLC 1260 Infinity Series Integrated System (Agilent Technologies, Milan, Italy).

electric eel eeAChE = biological target: T1, electric eel eeAChE (Electrophorus electricus, UniProt O42275); test: biochemical; details: for inhibition at 10 µM: at 10 µM concentration, mean ± SD; for IC50: mean ± SD of three independent determinations, ~10 means 50–60% inhibition at 10 µM
T1 construct: Acetylcholinesterase from electric eel and butyrylcholinesterase from equine serum (Sigma Aldrich) were employed; purchased Sigma Aldrich; host or cells: electric eel (natural source)

horse serum eqBChE = biological target: T2, horse serum eqBChE (Equus caballus, UniProt P81908); test: biochemical; assay type: biochemical; details: at 10 µM concentration
T2 construct: Acetylcholinesterase from electric eel and butyrylcholinesterase from equine serum (Sigma Aldrich) were employed; purchased Sigma Aldrich; host or cells: equine serum
Protocol: (§1) Cholinesterase inhibition assays were carried out using the Ellman spectrophotometric method, modified for a 96-well plate format. Acetylcholinesterase from electric eel and butyrylcholinesterase from equine serum (Sigma Aldrich) were employed. The measurements were performed in triplicate using clear, flat-bottom polystyrene plates (Greiner Bio-One).

[2] = Lipophilicity by RP-HPLC (log k'w); assay type: physicochemical; details: C18, extrapolated to 100% water mobile phase
Protocol: The lipophilicity of the five compounds in Table 4 was assessed by calculation and experimental approaches. As a calculated lipophilicity parameter (log Pcalc), we took from the SwissADME free website (http://www.swissadme.ch) the ‘Consensus Log Po/w’, that is, the arithmetic mean of octanol/water log Ps calculated by five methods (iLOGP, XLOGP3, WLOGP, MLOGP, and SILICOS-IT).
The lipophilicity parameters were determined by an RP-HPLC technique. In short, methanolic solutions of the examined compounds (1 mg·mL^−1) were analyzed by the Agilent 1260 infinite HPLC system (Agilent Technologies, Milan, Italy) equipped with a diode array detector (DAD), using a Phenomenex C18-column (Kinetex 5 μ, 100 Å, 150 × 3 mm) as the stationary phase and MeOH/water buffer mobile phases with different v/v composition (i.e., mobile phases containing 0.05 increments of MeOH volume fractions in 10 mM ammonium formate buffer at pH 4.5; φMeOH ranging between 0.70 and 0.20). The chromatographic measurements were carried out at 25 ± 1 °C, flow rate of 0.5 mL·min^−1, and detection at λ 330 nm. The log of capacity factors of each compound at different mobile phase compositions was calculated (log k′ = log (tR − t0)/t0, where tR represents the retention time of the solute and t0 is the column dead time). For each compound, the equation of the linear relationship between log k′ and φMeOH (R^2 > 0.991) on at least five datapoints, each from duplicate, was derived by regression analysis and the intercept at the y-axis (i.e., φMeOH = 0) calculated as the lipophilicity parameter log k′w.

human huMAO-B = biological target: T3, human huMAO-B (Homo sapiens, UniProt P27338); test: biochemical; assay type: biochemical; details: for inhibition at 10 µM: at 10 µM concentration, mean ± SD
T3 construct: purchased Sigma Aldrich; host or cells: insect cells infected with baculovirus (microsomes)
T3 sequence (P27338 1-520): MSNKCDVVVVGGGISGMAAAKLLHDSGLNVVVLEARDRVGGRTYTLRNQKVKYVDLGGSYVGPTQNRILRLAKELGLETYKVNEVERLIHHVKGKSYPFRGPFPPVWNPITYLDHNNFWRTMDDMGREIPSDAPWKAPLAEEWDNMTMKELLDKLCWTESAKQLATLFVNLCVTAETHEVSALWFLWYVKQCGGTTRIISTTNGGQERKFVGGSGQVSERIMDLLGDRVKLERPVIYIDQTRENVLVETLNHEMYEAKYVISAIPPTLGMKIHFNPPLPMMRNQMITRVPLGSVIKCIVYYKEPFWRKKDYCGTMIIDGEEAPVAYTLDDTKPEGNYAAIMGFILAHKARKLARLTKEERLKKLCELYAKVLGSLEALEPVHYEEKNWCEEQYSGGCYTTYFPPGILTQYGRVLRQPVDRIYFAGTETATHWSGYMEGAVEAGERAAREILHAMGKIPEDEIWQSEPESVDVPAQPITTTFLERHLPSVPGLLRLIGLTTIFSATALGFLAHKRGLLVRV
Protocol: (§2) The inhibition assays of human monoamine oxidases were conducted using a fluorescence-based method with kynuramine as a non-selective substrate for each isoform, MAO-A/B [44, 45, 46]. Recombinant human MAO-A and MAO-B (microsomes from insect cells infected with baculovirus; Sigma Aldrich, St. Louis, MO, USA) (Merk Life Science S.r.l., Milan, Italy) were used. The measurements were performed in triplicate in black round-bottom polystyrene 96-well plates (Greiner Bio-One, Kremsmünster, Austria). […] In the MAO inhibition assays, all compounds were initially screened at a concentration of 10 µM. Each of them was preincubated at 37 °C for 20 min with 50 µM kynuramine in a phosphate buffer (PBS, 0.1 M, pH 8.0), adjusted to 0.39 osmolarity with KCl. After adding recombinant human MAO-A/B (250 U/mg and 59 U/mg, respectively) and incubating for another 30 min, NaOH was added. The fluorescence was measured at excitation/emission wavelengths of 310/400 nm. […] The IC50 is reported as the mean ± SD of three independent experiments, each performed in duplicate.

human MAO-A [3] = biological target: T4, human MAO-A (Homo sapiens, UniProt P21397); test: biochemical; assay type: biochemical
T4 construct: purchased Sigma Aldrich; host or cells: insect cells infected with baculovirus (microsomes)
T4 sequence (P21397 1-527): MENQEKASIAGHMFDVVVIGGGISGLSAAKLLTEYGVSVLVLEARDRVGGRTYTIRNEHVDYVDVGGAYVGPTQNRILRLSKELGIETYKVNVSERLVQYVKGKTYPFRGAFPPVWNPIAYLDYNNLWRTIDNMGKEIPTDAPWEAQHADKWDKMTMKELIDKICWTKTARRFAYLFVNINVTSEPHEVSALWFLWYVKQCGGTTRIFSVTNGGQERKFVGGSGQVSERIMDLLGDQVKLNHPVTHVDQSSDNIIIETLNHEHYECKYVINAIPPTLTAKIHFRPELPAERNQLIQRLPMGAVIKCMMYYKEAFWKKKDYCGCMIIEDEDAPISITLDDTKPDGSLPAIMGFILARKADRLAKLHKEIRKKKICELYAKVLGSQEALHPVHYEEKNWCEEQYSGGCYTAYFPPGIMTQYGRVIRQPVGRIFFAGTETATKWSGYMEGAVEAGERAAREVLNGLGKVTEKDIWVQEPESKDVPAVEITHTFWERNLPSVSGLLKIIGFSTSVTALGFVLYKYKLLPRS
Protocol: as §2

human huAChE = human huAChE (Homo sapiens, UniProt P22303); test: biochemical; assay type: biochemical; details: for inhibition at 10 µM: at 10 µM concentration, read-out: huAChE inhibition class
Protocol: The inhibition of human huAChE was also evaluated for five compounds.
as §1

human MAO-A [4] = biological target: T4, human MAO-A; test: Inhibition kinetics and time course of MAO-A inhibition; assay type: biochemical
Description: For the sake of clarity, the position of the Mannich base (-CH2NR2) on the main coumarin core will be indicated as C8, whereas the positions of Cl or Br and OMe on the 4-coumarin-3-yl moiety will be indicated as C6′ and C8′.
Time courses of MAO-A inhibition by 2b and 5b, using a spectrophotometric assay measuring the absorbance of 4-
(1 picture or pasted object on this page, not shown here)

[5] = Hydrolytic stability in aqueous buffers; details: 0.01 M HCl (pH 2.0) and 0.05 M PBS (pH 7.4), 37 ± 1 °C, 1 h, 100 μM
Protocol: Sample solutions at 100 μM (DMSO as the cosolvent, 1% v/v) were incubated at 37 ± 1 °C for 1 h, following shaking of the solution on an orbital shaker at 250 rpm and monitoring by RP-HPLC.

[6] = PBS (50 mM, pH 7.4, 0.15 M KCl) at 25 ± 1 °C, n = 3
[7] = read-out: eqBChE inhibition class
[8] = mean ± SD of three independent determinations, ~10 means 50–60% inhibition at 10 µM
[9] = mean ± SD, read-out: eqBChE % inhibition

Chain of human huAChE (P22303 32-614): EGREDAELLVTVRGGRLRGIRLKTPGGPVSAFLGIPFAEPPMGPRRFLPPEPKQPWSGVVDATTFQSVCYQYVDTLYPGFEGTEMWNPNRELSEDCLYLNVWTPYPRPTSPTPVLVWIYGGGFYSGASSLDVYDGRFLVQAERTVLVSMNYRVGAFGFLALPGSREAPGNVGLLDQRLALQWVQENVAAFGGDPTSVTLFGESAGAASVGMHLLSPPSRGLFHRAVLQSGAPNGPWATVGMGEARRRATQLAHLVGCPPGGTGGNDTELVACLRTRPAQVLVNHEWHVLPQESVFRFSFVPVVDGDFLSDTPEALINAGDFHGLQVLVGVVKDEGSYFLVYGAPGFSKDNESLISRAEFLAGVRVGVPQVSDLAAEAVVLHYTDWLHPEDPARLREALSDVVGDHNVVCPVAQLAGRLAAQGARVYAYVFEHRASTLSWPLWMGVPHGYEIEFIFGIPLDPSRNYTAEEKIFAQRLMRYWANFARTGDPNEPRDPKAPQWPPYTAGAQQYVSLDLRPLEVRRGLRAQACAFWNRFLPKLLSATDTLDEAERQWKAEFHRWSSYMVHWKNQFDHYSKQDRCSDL
T1 sequence (O42275 24-633): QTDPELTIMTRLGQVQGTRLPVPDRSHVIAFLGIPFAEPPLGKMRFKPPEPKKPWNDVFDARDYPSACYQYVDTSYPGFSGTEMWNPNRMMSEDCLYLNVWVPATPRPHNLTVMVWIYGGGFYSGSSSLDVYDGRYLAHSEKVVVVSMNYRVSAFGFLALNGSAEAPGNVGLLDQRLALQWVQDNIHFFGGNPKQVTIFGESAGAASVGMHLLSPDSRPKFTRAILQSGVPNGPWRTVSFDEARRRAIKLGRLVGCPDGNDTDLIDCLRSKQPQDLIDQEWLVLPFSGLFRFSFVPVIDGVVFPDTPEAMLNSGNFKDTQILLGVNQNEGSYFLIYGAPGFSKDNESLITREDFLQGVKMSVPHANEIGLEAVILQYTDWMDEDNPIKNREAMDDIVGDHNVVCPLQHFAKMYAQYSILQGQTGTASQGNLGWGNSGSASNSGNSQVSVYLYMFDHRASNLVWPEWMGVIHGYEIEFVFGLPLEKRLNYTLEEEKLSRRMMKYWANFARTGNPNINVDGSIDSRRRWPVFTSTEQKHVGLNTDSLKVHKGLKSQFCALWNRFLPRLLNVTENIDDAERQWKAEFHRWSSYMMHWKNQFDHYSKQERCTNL
T2 sequence (P81908 whole entry): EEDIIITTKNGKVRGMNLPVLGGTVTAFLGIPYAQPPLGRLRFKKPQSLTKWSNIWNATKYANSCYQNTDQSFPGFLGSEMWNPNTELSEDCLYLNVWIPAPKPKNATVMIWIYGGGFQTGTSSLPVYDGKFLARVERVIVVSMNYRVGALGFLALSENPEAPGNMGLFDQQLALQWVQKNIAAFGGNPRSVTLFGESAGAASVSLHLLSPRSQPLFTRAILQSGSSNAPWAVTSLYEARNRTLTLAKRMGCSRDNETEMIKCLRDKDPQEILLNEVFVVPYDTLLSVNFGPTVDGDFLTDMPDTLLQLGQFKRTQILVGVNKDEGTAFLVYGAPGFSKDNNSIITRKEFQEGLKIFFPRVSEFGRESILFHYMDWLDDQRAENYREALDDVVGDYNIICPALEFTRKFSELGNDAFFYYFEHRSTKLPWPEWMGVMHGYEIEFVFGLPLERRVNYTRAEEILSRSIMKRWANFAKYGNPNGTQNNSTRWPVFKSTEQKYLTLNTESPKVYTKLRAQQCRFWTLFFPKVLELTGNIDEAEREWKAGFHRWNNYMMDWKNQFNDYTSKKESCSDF

| Compound | solubility at 2 h [1, 6] | experimental solubility in PBS pH 7.4, times higher than calculated with the ESOL model [1] | inhibition at 10 µM (electric eel eeAChE) | inhibition at 10 µM (horse serum eqBChE; [7]) | Log k’w (polycratic capacity factor) [2] | inhibition at 10 µM (human huMAO-B) | IC50 (human MAO-A [3]) | inhibition at 10 µM (human huAChE) | IC50 (electric eel eeAChE) | IC50 (human huMAO-B) | hydrolytic stability [5] | huMAO-A IC50 (human MAO-A [3]; [8]) | inhibition at 10 µM (horse serum eqBChE; [9]) | other results |
| --- | --- | --- | --- | --- | --- | --- | --- | --- | --- | --- | --- | --- | --- | --- |
| CN(C)Cc1c(O)ccc2c(-c3cc4ccccc4oc3=O)cc(=O)oc12 [Compound 2a, 8-((dimethylamino)methyl)-4-(2-oxo-2H-chromen-3-yl)-7-hydroxy-2H-chromen-2-one] | 183 µM (≈ 66.5 µg/mL) | two | 22% | < 10% | 2.11 | 36% | 8300 ± 360 nM |  |  |  |  |  |  |  |
| CN(C)Cc1c(O)ccc2c(-c3cc4cc(Cl)ccc4oc3=O)cc(=O)oc12 [Compound 2b, 8-((dimethylamino)methyl)-4-(6-chloro-2-oxo-2H-chromen-3-yl)-7-hydroxy-2H-chromen-2-one] | 147 µM (≈ 58.5 µg/mL) |  |  | < 10% | 2.45 |  | 1490 ± 490 nM | < 10% | ~10 µM | ~10 µM |  |  |  | mode of inhibition of MAO-A (human MAO-A [4]; Michaelis–Menten and Lineweaver–Burk plots): competitive; Ki (human MAO-A [4]; human MAO-A, competitive inhibition, read-out: inhibition constant (Ki) MAO-A): 272 nM; reversibility of MAO-A inhibition (human MAO-A [4]; time course, absorbance of 4-hydroxyquinoline at 316 nm, inhibitor close to IC50): reversible |
| CN(C)Cc1c(O)ccc2c(-c3cc4cc(Br)ccc4oc3=O)cc(=O)oc12 [Compound 2c, 8-((dimethylamino)methyl)-4-(6-bromo-2-oxo-2H-chromen-3-yl)-7-hydroxy-2H-chromen-2-one] | 141 µM (≈ 62.4 µg/mL) | thirteen | 20% | < 10% | 2.65 |  | 2230 ± 220 nM | < 10% |  | ~10 µM | stable over 1 h | single-digit micromolar |  |  |
| COc1cccc2cc(-c3cc(=O)oc4c(CN(C)C)c(O)ccc34)c(=O)oc12 [Compound 2d, 8-((dimethylamino)methyl)-4-(8-methoxy-2-oxo-2H-chromen-3-yl)-7-hydroxy-2H-chromen-2-one] | 196 µM (≈ 77.1 µg/mL) |  | 39% |  | 2.32 | 28% |  |  |  |  |  |  | 25% |  |
| CCN(CC)Cc1c(O)ccc2c(-c3cc4cc(Br)ccc4oc3=O)cc(=O)oc12 [Compound 3c, 8-((diethylamino)methyl)-4-(6-bromo-2-oxo-2H-chromen-3-yl)-7-hydroxy-2H-chromen-2-one] |  | fifty; also recorded: fiftyfold |  |  | 2.89 | 42% | 3040 ± 1370 nM |  | < 10 µM and 1.56 µM |  |  | single-digit micromolar | 37% | Solubility Exp. [1, 6]: 181 µM (≈ 85.1 µg/mL); water solubility relative to 2c ([1]; at pH 7.4): 1.3 fold; IC50 (human huAChE): 4.27 ± 0.58 µM |
| CCCCN(C)Cc1c(O)ccc2c(-c3cc4cc(Br)ccc4oc3=O)cc(=O)oc12 [Compound 5c] |  |  |  |  |  |  |  |  |  |  | stable over 1 h | single-digit micromolar |  | eqBChE % inhibition (horse serum eqBChE; mean ± SD): [25 ± 11] %; IC50 (human huMAO-B; [8]): ~10 µM; IC50 (human MAO-A [3]; [8]): 2520 ± 700 nM |
